pIC50: −log10 of the molar value.
Columns and labels:
[1] = molecular target: T1, Monoacylglycerol lipase ABHD6 (Mus musculus, UniProt Q8R2Y0); test: Inhibition of ABHD6 in mouse brain membrane using HT-01 probe as substrate incubated for 30 mins by gel based competitive ABPP assay; assay type: cell membranes
T1 sequence (Q8R2Y0 whole entry): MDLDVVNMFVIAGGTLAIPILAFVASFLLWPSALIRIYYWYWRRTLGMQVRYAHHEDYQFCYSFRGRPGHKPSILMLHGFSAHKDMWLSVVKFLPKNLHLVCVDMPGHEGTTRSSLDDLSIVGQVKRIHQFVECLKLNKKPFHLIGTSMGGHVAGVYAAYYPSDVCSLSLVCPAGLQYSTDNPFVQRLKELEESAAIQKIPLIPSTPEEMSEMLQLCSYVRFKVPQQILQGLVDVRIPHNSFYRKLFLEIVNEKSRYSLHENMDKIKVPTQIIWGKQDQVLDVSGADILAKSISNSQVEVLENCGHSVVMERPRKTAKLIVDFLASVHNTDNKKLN

[2] = molecular target: T2, Monoacylglycerol lipase ABHD6 (Homo sapiens, UniProt Q9BV23); test: Inhibition of ABHD6 (unknown origin)
T2 sequence (Q9BV23 whole entry): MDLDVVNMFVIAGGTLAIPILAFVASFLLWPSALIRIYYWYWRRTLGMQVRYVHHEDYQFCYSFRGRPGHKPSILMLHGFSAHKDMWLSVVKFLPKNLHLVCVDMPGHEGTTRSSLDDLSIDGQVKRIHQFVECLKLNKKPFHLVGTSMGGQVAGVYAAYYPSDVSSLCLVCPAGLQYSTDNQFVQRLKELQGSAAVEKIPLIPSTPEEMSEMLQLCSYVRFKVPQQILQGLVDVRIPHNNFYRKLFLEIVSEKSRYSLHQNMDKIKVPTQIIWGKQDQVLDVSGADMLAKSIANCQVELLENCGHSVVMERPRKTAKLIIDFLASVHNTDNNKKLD

[3] = molecular target: T3, Fatty-acid amide hydrolase 1 (Mus musculus) (UniProt O08914); test: Inhibition of FAAH in mouse Primary neuron cells using [3H]AEA as substrate at 30 uM incubated for 30 mins by liquid scintillation analysis; assay type: cell-based
T3 sequence (whole entry): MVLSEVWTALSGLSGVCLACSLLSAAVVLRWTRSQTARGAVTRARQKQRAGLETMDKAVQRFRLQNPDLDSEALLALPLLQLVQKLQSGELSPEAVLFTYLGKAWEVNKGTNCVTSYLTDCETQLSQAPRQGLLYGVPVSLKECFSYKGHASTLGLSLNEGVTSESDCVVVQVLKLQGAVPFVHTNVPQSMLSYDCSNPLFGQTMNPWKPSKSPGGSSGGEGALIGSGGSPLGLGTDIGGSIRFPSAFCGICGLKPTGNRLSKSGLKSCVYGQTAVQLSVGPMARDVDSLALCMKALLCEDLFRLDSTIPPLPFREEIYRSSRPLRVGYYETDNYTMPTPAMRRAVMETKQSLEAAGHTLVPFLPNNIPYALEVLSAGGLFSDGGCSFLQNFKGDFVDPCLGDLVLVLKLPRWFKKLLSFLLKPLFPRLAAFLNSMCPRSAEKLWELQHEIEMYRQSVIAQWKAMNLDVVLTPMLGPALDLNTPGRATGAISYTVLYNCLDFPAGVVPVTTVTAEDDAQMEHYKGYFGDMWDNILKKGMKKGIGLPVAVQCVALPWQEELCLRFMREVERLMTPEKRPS

[4] = molecular target: T4, Monoacylglycerol lipase ABHD6 (Mus musculus) (UniProt Q8R2Y0); test: Inhibition of ABHD6 in mouse Primary neuron cells using 2-[3H]AG as substrate at 30 uM incubated for 30 mins by liquid scintillation analysis; assay type: cell-based
T4 sequence (whole entry): T1 sequence (Q8R2Y0 whole entry)

[5] = molecular target: T1, Monoacylglycerol lipase ABHD6; test: Inhibition of mouse ABHD6 expressed in COS-7 cells using 2-[3H]AG as substrate incubated for 30 mins by liquid scintillation analysis; assay type: cell-based
[6] = molecular target: T5, Fatty-acid amide hydrolase 1 (Mus musculus, UniProt O08914); test: Inhibition of mouse FAAH expressed in COS-7 cells using [3H]AEA as substrate incubated for 30 mins by liquid scintillation analysis; assay type: cell-based
T5 sequence (O08914 whole entry): T3 sequence (whole entry)

[7] = molecular target: T1, Monoacylglycerol lipase ABHD6; test: Inhibition of ABHD6 in mouse brain membrane using FP-biotin as substrate incubated for 1 hr by LC-MS based ABPP-MudPIT analysis; assay type: cell membranes
[8] = molecular target: T2, Monoacylglycerol lipase ABHD6; test: Inhibition of human recombinant ABHD6
Monoglyceride lipase = molecular target: T6, Monoglyceride lipase (Mus musculus, UniProt O35678); test: Inhibition of mouse MAGL expressed in COS-7 cells using 2-[3H]AG as substrate incubated for 30 mins by liquid scintillation analysis; assay type: cell-based
T6 sequence (O35678 whole entry): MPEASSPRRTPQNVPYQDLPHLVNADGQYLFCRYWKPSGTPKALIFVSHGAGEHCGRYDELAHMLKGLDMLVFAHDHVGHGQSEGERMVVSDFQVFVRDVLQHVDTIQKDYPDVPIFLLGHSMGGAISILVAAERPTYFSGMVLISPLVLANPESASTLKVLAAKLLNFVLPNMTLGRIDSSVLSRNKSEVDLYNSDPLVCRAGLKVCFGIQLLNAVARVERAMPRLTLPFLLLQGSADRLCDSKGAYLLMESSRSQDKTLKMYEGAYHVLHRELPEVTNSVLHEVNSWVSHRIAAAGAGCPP

[9] = molecular target: T4, Monoacylglycerol lipase ABHD6 (Mus musculus); test: Inhibition of ABHD6 in mouse brain membrane using FP-biotin as substrate at 10 uM incubated for 1 hr by LC-MS based ABPP-MudPIT analysis; assay type: cell membranes

CC(C)(C)OC(=O)N1CCN(C(=O)n2cc(-c3ccc(OC(F)(F)F)cc3)nn2)C(c2ccccc2)C1 (stereo not given)
pIC50 [1]: 7.70

COC(=O)[C@]1(C)CC[C@]2(C)CC[C@]3(C)C4=CC=C5C(=CC(=O)C(O)=C5C)[C@]4(C)CC[C@@]3(C)[C@@H]2C1 [PRISTIMERIN]
pIC50 [2]: 5.89

CCCCCC/C=C\CCCCCCCC(=O)OCC1CO1 (stereo not given)
inhibition [3]: 60% | inhibition [4]: 30% | pIC50 [5]: 5.62 | pIC50 [6]: 5.40

CN(Cc1cccc(-c2ccccc2)c1)C(=O)Oc1ccc(-c2ccc(C(N)=O)cc2)cc1
pIC50 [7]: 6.37

CC(C)(C)OC(=O)N1CCN(C(=O)n2cc(-c3ccc(OC(F)(F)F)cc3)nn2)C(Cc2ccccc2)C1 (stereo not given)
pIC50 [8]: 8.44 | pIC50 [1]: 7.10

C#CCO[C@@H]1CC[C@H](Cc2ccccc2)N(C(=O)n2ncc(C(O)(c3ccc(F)cc3)c3ccc(F)cc3)n2)C1
pIC50 [8]: 8.55 | pIC50 [1]: 6.90

CC/C=C\C/C=C\C/C=C\CCCCCCCC(=O)OCC1CO1 (stereo not given)
pIC50 [5]: 6.10 | pIC50 [6]: 6.05 | pIC50 (Monoglyceride lipase): 3.57

CN(Cc1cccc(-c2ccncc2)c1)C(=O)Oc1ccc(-c2ccc(C(N)=O)cc2)cc1
inhibition [9]: 90%

Source: ChEMBL document CHEMBL5233244, “Therapeutic potential of targeting α/β-Hydrolase domain-containing 6 (ABHD6)” (Eur J Med Chem, 2020)
